We go through 3 compounds from the kinase profiling compilation of Christmann-Franck et al. (2016).

The term residual activity denotes the signal under treatment as a percentage of the control signal.

Chain of MAP4K4 (human) (O95819 whole entry, looked up): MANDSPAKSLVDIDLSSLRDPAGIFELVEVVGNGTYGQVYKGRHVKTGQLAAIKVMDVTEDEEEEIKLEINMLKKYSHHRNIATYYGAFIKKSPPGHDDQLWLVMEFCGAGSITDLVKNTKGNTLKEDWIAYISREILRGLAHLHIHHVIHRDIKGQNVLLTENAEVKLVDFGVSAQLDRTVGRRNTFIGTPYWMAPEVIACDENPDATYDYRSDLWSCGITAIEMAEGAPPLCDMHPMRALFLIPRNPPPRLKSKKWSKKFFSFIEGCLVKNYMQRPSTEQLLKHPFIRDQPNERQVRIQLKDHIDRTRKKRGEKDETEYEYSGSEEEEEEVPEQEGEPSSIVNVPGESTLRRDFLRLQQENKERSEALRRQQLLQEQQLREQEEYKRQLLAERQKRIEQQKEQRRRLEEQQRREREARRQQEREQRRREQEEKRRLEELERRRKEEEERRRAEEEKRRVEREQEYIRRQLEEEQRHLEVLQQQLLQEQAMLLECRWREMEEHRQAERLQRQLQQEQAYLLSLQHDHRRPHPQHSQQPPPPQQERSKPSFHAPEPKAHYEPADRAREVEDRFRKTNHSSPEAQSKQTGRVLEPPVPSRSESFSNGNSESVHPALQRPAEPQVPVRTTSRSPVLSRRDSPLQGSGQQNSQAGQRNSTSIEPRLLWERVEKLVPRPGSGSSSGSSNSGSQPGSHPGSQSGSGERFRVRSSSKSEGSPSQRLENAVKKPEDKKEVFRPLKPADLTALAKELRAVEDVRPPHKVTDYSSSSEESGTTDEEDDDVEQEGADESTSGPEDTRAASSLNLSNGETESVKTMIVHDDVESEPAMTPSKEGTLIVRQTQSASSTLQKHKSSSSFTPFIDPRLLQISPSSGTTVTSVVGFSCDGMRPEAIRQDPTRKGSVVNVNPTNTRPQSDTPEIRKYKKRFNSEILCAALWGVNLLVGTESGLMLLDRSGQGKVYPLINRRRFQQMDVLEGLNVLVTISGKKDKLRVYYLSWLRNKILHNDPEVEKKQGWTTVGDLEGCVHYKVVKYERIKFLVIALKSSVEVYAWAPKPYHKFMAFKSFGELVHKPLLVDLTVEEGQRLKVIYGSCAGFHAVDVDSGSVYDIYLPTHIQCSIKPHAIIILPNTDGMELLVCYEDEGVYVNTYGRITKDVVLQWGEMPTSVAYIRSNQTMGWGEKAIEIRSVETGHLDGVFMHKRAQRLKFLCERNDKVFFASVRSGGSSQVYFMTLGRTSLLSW
Chain of TAOK3 (human) (Q9H2K8 whole entry, looked up): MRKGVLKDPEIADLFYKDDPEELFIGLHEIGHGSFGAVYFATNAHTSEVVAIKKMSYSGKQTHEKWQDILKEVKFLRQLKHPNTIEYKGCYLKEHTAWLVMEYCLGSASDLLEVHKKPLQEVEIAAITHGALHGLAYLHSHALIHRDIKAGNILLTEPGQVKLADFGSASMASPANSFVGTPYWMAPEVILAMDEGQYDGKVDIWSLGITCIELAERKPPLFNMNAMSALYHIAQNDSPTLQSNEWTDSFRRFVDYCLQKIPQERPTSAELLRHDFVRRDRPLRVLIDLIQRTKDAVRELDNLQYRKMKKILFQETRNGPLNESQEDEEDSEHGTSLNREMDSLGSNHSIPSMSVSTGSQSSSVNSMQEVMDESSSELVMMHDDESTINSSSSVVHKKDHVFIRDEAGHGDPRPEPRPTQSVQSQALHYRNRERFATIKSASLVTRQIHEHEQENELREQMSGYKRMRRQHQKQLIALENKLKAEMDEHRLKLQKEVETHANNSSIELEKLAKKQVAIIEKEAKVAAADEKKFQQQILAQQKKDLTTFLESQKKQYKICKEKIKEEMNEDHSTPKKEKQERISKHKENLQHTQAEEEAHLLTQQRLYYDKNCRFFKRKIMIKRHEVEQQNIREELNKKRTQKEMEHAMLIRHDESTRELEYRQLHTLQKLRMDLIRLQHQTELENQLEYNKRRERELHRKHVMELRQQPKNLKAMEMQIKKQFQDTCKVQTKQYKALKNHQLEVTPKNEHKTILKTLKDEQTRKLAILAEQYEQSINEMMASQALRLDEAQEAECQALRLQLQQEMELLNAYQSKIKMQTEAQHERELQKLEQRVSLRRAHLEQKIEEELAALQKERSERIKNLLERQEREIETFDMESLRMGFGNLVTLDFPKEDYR

The first experiment addresses LRRK2 (human) (UniProt Q5S007). Briefly: radiometric filter-binding kinase assay, Kinase HotSpot. The settings on record: compound 0.5 µM; ATP 10 µM.
Turning to `O=C1NC(=O)/C(=C/c2ccc3c(c2)OC(F)(F)O3)S1`, the residual activity turned out to be 103%.
On the same count and under the same terms, in the case of `N#CC(C#N)=C(N)/C(C#N)=C/c1ccc(O)cc1` it was 97.1%; in that of `COc1cc2ncnc(Nc3cccc(Cl)c3)c2cc1OC`, 60.9%.

The target of the next experiment is LTK (human) (UniProt P29376). The description is as above. The settings on record: compound 0.5 µM; ATP 10 µM.
Chain of LTK (human) (P29376 whole entry, looked up): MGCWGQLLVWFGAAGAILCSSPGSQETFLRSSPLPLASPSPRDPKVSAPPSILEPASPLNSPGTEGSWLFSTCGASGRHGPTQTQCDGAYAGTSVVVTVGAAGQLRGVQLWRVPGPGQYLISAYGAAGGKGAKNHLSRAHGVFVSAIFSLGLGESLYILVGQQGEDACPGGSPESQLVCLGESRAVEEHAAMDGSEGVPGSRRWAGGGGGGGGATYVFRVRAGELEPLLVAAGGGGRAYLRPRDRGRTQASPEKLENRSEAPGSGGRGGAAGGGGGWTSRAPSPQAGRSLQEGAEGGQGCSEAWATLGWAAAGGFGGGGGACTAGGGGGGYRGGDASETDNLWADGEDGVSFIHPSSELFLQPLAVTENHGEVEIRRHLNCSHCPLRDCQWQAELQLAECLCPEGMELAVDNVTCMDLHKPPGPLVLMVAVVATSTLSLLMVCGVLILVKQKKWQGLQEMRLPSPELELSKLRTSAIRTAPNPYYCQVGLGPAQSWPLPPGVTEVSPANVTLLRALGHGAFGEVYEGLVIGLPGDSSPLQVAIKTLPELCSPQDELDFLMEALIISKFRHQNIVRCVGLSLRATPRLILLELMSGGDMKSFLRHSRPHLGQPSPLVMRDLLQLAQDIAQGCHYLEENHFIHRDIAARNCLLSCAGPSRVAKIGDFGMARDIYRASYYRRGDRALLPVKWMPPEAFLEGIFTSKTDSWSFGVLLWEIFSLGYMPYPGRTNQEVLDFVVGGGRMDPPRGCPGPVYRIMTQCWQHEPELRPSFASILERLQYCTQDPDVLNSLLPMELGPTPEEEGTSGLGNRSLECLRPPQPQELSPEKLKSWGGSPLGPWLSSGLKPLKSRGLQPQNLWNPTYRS
With `O=C1NC(=O)/C(=C/c2ccc3c(c2)OC(F)(F)O3)S1`, the residual activity came out at 95.5%.
Same read-out and setting: with `N#CC(C#N)=C(N)/C(C#N)=C/c1ccc(O)cc1` the figure was 92.5%.
Consider `COc1cc2ncnc(Nc3cccc(Cl)c3)c2cc1OC`, for which the residual activity is 60.3%.

For the next experiment, the target named is MAP3K5 (human) (UniProt Q99683). The description is as above. The settings on record: compound 0.5 µM; ATP 10 µM.
Take `O=C1NC(=O)/C(=C/c2ccc3c(c2)OC(F)(F)O3)S1`: the residual activity worked out at 105%.
Consider `N#CC(C#N)=C(N)/C(C#N)=C/c1ccc(O)cc1`, for which the residual activity is 103%.
Same read-out and setting: with `COc1cc2ncnc(Nc3cccc(Cl)c3)c2cc1OC` the figure was 106%.

Another experiment has as its target MAP3K9 (human) (UniProt P80192). Described as above. The settings on record: compound 0.5 µM; ATP 10 µM.
On to `O=C1NC(=O)/C(=C/c2ccc3c(c2)OC(F)(F)O3)S1`, for which the residual activity is 101%.
On to `N#CC(C#N)=C(N)/C(C#N)=C/c1ccc(O)cc1`, for which the residual activity worked out at 94.4%.
Consider `COc1cc2ncnc(Nc3cccc(Cl)c3)c2cc1OC`, for which the residual activity came out at 82.8%.

A further experiment addresses MAP4K4 (human) (UniProt O95819). The experiment is described as above. As to conditions: compound 0.5 µM; ATP 10 µM.
`O=C1NC(=O)/C(=C/c2ccc3c(c2)OC(F)(F)O3)S1`: the residual activity worked out at 95.3%.
In the case of `N#CC(C#N)=C(N)/C(C#N)=C/c1ccc(O)cc1`, the residual activity is 91.2%.
Same read-out and setting: with `COc1cc2ncnc(Nc3cccc(Cl)c3)c2cc1OC` the figure was 68.1%.

The next experiment deals with MAPK8 (human) (UniProt P45983). Described as above. As to conditions: compound 0.5 µM; ATP 10 µM.
Chain of MAPK8 (human) (P45983 whole entry, looked up): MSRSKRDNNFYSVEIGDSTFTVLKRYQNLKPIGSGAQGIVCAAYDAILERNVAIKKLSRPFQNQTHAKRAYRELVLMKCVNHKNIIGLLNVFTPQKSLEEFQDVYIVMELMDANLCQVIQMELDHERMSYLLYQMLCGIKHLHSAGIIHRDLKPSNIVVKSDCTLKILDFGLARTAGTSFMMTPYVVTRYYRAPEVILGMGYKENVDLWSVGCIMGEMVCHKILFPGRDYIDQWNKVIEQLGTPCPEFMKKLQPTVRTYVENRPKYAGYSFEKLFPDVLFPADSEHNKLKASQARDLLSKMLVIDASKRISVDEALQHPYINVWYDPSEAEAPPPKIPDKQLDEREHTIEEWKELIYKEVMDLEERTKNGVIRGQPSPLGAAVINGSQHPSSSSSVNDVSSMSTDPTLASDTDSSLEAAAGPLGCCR
In the case of `O=C1NC(=O)/C(=C/c2ccc3c(c2)OC(F)(F)O3)S1`, the residual activity is 95.1%.
On the same count and under the same terms, in the case of `N#CC(C#N)=C(N)/C(C#N)=C/c1ccc(O)cc1` it was 100%.
`COc1cc2ncnc(Nc3cccc(Cl)c3)c2cc1OC`: the residual activity stood at 93.8%.

The next experiment has as its target MST4 (human) (UniProt Q9P289). The experiment is described as above. As to conditions: compound 0.5 µM; ATP 10 µM.
For the compound `O=C1NC(=O)/C(=C/c2ccc3c(c2)OC(F)(F)O3)S1`, the residual activity amounted to 86.8%.
On the same count and under the same terms, with `N#CC(C#N)=C(N)/C(C#N)=C/c1ccc(O)cc1` the figure was 101%; with `COc1cc2ncnc(Nc3cccc(Cl)c3)c2cc1OC`, 108%.

The next experiment concerns the target NEK3 (human) (UniProt P51956). The experiment is described as above. The settings on record: compound 0.5 µM; ATP 10 µM.
For `O=C1NC(=O)/C(=C/c2ccc3c(c2)OC(F)(F)O3)S1`, the residual activity is 92.6%.
Same read-out and setting: with `N#CC(C#N)=C(N)/C(C#N)=C/c1ccc(O)cc1` the figure was 98%.
The same measure, in the same setting: in the case of `COc1cc2ncnc(Nc3cccc(Cl)c3)c2cc1OC` it was 84.3%.

The target of a further experiment is NEK4 (human) (UniProt P51957). The description is as above. As to conditions: compound 0.5 µM; ATP 10 µM.
For `O=C1NC(=O)/C(=C/c2ccc3c(c2)OC(F)(F)O3)S1`, the residual activity was found to be 97.8%.
`N#CC(C#N)=C(N)/C(C#N)=C/c1ccc(O)cc1`: the residual activity came to 93.3%.
Still for that read-out and setting: with `COc1cc2ncnc(Nc3cccc(Cl)c3)c2cc1OC` the figure was 87.5%.

The target of another experiment is PAK6 (human) (UniProt Q9NQU5). Described as above. As to conditions: compound 0.5 µM; ATP 10 µM.
Turning to `O=C1NC(=O)/C(=C/c2ccc3c(c2)OC(F)(F)O3)S1`, the residual activity worked out at 103%.
The same measure, in the same setting: with `N#CC(C#N)=C(N)/C(C#N)=C/c1ccc(O)cc1` the figure was 97%; with `COc1cc2ncnc(Nc3cccc(Cl)c3)c2cc1OC`, 81.6%.

A further experiment deals with PIM2 (human) (UniProt Q9P1W9). The description is as above. As to conditions: compound 0.5 µM; ATP 10 µM.
Chain of PIM2 (human) (Q9P1W9 whole entry, looked up): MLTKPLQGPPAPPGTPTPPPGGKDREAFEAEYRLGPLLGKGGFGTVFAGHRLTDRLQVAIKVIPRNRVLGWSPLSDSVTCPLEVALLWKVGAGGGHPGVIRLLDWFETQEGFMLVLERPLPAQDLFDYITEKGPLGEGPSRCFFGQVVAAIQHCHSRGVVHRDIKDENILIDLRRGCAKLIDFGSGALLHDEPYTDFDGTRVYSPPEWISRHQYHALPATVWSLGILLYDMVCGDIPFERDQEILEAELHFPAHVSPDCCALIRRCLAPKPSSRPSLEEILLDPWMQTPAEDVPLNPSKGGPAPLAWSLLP
Consider `O=C1NC(=O)/C(=C/c2ccc3c(c2)OC(F)(F)O3)S1`, for which the residual activity came out at 91.9%.
Still for that read-out and setting: with `N#CC(C#N)=C(N)/C(C#N)=C/c1ccc(O)cc1` the figure was 88.2%; with `COc1cc2ncnc(Nc3cccc(Cl)c3)c2cc1OC`, 104%.

For a further experiment, the target named is PLK2 (human) (UniProt Q9NYY3). The experiment is described as above. As to conditions: compound 0.5 µM; ATP 10 µM.
Chain of PLK2 (human) (Q9NYY3 whole entry, looked up): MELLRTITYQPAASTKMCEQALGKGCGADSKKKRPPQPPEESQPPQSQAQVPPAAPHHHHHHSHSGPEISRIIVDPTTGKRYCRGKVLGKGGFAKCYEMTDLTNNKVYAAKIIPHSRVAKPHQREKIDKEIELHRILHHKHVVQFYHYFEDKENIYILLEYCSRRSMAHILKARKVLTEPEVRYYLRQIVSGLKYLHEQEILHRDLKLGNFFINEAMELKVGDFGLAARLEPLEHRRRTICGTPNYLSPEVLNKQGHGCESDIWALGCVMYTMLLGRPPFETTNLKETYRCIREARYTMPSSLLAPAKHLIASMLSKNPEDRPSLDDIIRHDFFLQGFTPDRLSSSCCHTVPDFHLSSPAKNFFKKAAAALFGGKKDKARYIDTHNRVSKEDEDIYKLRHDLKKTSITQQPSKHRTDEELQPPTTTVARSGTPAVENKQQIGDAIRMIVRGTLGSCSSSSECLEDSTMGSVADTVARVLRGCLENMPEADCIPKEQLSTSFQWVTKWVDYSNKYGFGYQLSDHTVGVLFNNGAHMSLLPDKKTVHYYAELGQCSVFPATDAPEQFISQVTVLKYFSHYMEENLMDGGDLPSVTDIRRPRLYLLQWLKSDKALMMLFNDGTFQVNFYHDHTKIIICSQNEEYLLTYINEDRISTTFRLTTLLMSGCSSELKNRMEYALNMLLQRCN
As for `O=C1NC(=O)/C(=C/c2ccc3c(c2)OC(F)(F)O3)S1`, the residual activity stood at 99.7%.
`N#CC(C#N)=C(N)/C(C#N)=C/c1ccc(O)cc1`: the residual activity was 99.9%.
On the same count and under the same terms, in the case of `COc1cc2ncnc(Nc3cccc(Cl)c3)c2cc1OC` it was 102%.

For a further experiment, the target named is PRKCI (human) (UniProt P41743). The experiment is described as above. The settings on record: compound 0.5 µM; ATP 10 µM.
Turning to `O=C1NC(=O)/C(=C/c2ccc3c(c2)OC(F)(F)O3)S1`, the residual activity amounted to 95.9%.
In the case of `N#CC(C#N)=C(N)/C(C#N)=C/c1ccc(O)cc1`, the residual activity worked out at 97.4%.
The same measure, in the same setting: with `COc1cc2ncnc(Nc3cccc(Cl)c3)c2cc1OC` the figure was 97.5%.

For another experiment, the target named is RAF1 (human) (UniProt P04049). The experiment is described as above. The settings on record: compound 0.5 µM; ATP 10 µM.
Chain of RAF1 (human) (P04049 whole entry, looked up): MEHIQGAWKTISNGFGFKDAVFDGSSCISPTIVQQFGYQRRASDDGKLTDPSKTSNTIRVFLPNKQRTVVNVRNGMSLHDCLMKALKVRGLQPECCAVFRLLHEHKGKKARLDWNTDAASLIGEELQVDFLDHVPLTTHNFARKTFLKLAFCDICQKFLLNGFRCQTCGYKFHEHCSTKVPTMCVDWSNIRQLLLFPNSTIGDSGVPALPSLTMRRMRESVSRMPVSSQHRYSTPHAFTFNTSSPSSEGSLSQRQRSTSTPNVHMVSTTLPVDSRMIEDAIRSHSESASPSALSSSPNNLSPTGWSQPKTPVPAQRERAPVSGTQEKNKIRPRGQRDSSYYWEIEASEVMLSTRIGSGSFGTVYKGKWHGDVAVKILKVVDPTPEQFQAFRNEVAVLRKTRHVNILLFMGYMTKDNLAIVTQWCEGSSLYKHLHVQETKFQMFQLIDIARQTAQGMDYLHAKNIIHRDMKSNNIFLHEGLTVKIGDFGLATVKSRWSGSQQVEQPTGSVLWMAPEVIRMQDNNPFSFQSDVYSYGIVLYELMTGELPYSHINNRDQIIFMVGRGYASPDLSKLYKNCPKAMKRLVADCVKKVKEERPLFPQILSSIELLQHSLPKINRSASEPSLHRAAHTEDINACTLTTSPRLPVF
For `O=C1NC(=O)/C(=C/c2ccc3c(c2)OC(F)(F)O3)S1`, the residual activity was 95.5%.
Still for that read-out and setting: with `N#CC(C#N)=C(N)/C(C#N)=C/c1ccc(O)cc1` the figure was 86.3%.
Same read-out and setting: in the case of `COc1cc2ncnc(Nc3cccc(Cl)c3)c2cc1OC` it was 78.4%.

Another experiment concerns the target RIPK2 (human) (UniProt O43353). The experiment is described as above. As to conditions: compound 0.5 µM; ATP 10 µM.
With `O=C1NC(=O)/C(=C/c2ccc3c(c2)OC(F)(F)O3)S1`, the residual activity turned out to be 88.2%.
On the same count and under the same terms, with `N#CC(C#N)=C(N)/C(C#N)=C/c1ccc(O)cc1` the figure was 95.5%; with `COc1cc2ncnc(Nc3cccc(Cl)c3)c2cc1OC`, 45.4%.

For another experiment, the target named is ROS1 (human) (UniProt P08922). Described as above. The settings on record: compound 0.5 µM; ATP 10 µM.
Consider `O=C1NC(=O)/C(=C/c2ccc3c(c2)OC(F)(F)O3)S1`, for which the residual activity was 88.5%.
The same measure, in the same setting: with `N#CC(C#N)=C(N)/C(C#N)=C/c1ccc(O)cc1` the figure was 97.1%; with `COc1cc2ncnc(Nc3cccc(Cl)c3)c2cc1OC`, 91.2%.

In a further experiment the target is RPS6KB1 (human) (UniProt P23443). Described as above. The settings on record: compound 0.5 µM; ATP 10 µM.
With `O=C1NC(=O)/C(=C/c2ccc3c(c2)OC(F)(F)O3)S1`, the residual activity came out at 85.1%.
On to `N#CC(C#N)=C(N)/C(C#N)=C/c1ccc(O)cc1`, for which the residual activity came out at 89.5%.
Same read-out and setting: with `COc1cc2ncnc(Nc3cccc(Cl)c3)c2cc1OC` the figure was 88.5%.

The target in another experiment is SRPK1 (human) (UniProt Q96SB4). The description is as above. The settings on record: compound 0.5 µM; ATP 10 µM.
For the compound `O=C1NC(=O)/C(=C/c2ccc3c(c2)OC(F)(F)O3)S1`, the residual activity amounted to 105%.
For `N#CC(C#N)=C(N)/C(C#N)=C/c1ccc(O)cc1`, the residual activity was determined as 100%.
The same measure, in the same setting: with `COc1cc2ncnc(Nc3cccc(Cl)c3)c2cc1OC` the figure was 102%.

A further experiment has as its target STK10 (human) (UniProt O94804). The experiment is described as above. The settings on record: compound 0.5 µM; ATP 10 µM.
As to `O=C1NC(=O)/C(=C/c2ccc3c(c2)OC(F)(F)O3)S1`, the residual activity came out at 98.6%.
On the same count and under the same terms, in the case of `N#CC(C#N)=C(N)/C(C#N)=C/c1ccc(O)cc1` it was 92.4%; in that of `COc1cc2ncnc(Nc3cccc(Cl)c3)c2cc1OC`, 24.5%.

The next experiment addresses TAOK3 (human) (UniProt Q9H2K8). The description is as above. As to conditions: compound 0.5 µM; ATP 10 µM.
Take `O=C1NC(=O)/C(=C/c2ccc3c(c2)OC(F)(F)O3)S1`: the residual activity was 84.7%.
Take `N#CC(C#N)=C(N)/C(C#N)=C/c1ccc(O)cc1`: the residual activity amounted to 102%.
Still for that read-out and setting: in the case of `COc1cc2ncnc(Nc3cccc(Cl)c3)c2cc1OC` it was 90.4%.

The target of another experiment is TSSK1B (human) (UniProt Q9BXA7). The experiment is described as above. As to conditions: compound 0.5 µM; ATP 10 µM.
In the case of `O=C1NC(=O)/C(=C/c2ccc3c(c2)OC(F)(F)O3)S1`, the residual activity came out at 93.3%.
On the same count and under the same terms, with `N#CC(C#N)=C(N)/C(C#N)=C/c1ccc(O)cc1` the figure was 111%; with `COc1cc2ncnc(Nc3cccc(Cl)c3)c2cc1OC`, 95.7%.
